How the values were obtained:
recombinant human DHODH = recombinant human DHODH (Homo sapiens (Human), UniProt Q02127); assay: DHODH enzyme assay (Assay A), DCIP absorbance; assay type: biochemical; conditions: bins ≥10 nM-<100 nM and <10 nM; read-out: IC50 DHODH inhibition activity
ZIKV = assay: anti-ZIKV CPE reduction assay in A549 cells (MTS); assay type: cell-based, ZIKV MR766 prototype strain
Procedure: (§1) The lung cancer epithelial cell line A549 was obtained from the American Type Culture Collection (ATCC; Rockville, MD, USA) and cultured in MEM medium (Gibco BRL, Gaithersburg, MD, USA) with 10% fetal calf serum (FCS; Gibco BRL), 2 mM L-glutamine (Gibco BRL) and 0.075% sodium bicarbonate (Gibco BRL).
(§2) The ZIKV MR766 prototype strain and the DENV-2 laboratory-adapted New Guinea C strain were obtained from ATCC and stocks were grown in the C6/36 mosquito cell line (ATCC). Viral stock titers were determined using plaque assay in BHK-21 cells (ATCC).
(§3) The anti-ZIKV and anti-DENV-2 activity in A549 cells was determined using a tetrazolium-based colorimetric cytopathic effect (CPE) reduction assay. This assay has been described in detail before (Virology. 2021; doi.org/10.1016/j.virol.2021.07.003). […] Three hours after MTS incubation, virus was inactivated using 0.5% Triton X-100 (Thermo Fisher Scientific, Waltham, MA, USA) and the absorbance was then recorded at 490 nm with a 96-well plate reader and compared with four cell control replicates (cells without virus and drugs) and four virus control wells (cells with virus but without drug). […] Absorbance was recorded using the VersaMax ELISA™ microplate reader (Molecular Devices) and analyzed with the Softmax Pro® software (Molecular Devices, Version 4.0). […]

DENV-2 = assay: anti-DENV-2 CPE reduction assay in A549 cells (MTS); assay type: cell-based, DENV-2 laboratory-adapted New Guinea C strain
Procedure: as §1, §2, §3

Chain of recombinant human DHODH (Q02127 whole entry): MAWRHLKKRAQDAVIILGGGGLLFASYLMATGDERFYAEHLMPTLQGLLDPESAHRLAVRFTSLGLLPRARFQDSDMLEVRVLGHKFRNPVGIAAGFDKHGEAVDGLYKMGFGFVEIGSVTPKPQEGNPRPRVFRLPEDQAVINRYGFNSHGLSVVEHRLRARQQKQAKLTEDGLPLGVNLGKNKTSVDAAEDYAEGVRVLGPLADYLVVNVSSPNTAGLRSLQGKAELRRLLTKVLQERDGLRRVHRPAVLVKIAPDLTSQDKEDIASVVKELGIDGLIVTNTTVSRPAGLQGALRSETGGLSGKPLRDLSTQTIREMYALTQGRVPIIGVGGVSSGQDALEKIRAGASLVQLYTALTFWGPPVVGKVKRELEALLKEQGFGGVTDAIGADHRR

COc1ccc(F)c(-n2ncc3c2COC[C@H]3NC(=O)c2ncn3c2CCCC3)c1Cl (single isomer, unassigned) [Ex-9]
IC50 (recombinant human DHODH): < 10 nM
antiviral activity against ZIKV (ZIKV): demonstrating antiviral activity
IC50 (ZIKV; Zika virus, 72 h, MOI 1, 3 d of infection): 9.3 ± 2 nM
antiviral activity against DENV-2 (DENV-2; A549 cells): demonstrating antiviral activity
IC50 (DENV-2; Dengue virus, DENV2, A549, 96 h, read-out: IC50 DENV-2 MTS): 1.6 ± 1 nM
hHEPs % remaining (in vitro; % remaining at 120 min, 1 μM): 87%
half-life at 1 μM (in vitro; human, hepatocytes): > 10 h

Source: patent publication US20250388602A1 (Genase Therapeutics B.V., priority 2022, published 2025)
